Measured values taken from PubChem BioAssay (NCI).
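All cell lines were grown in 96-well plates and treated with compound for 48 hours. GI50 = concentration required for 50% inhibition of growth. The concentration for full growth arrest is given as TGI.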

Assays:
Assay in all cases: NCI anticancer screen, dose series, 48 h
OVCAR-3 ovarian = system: OVCAR-3 ovarian
UO-31 renal = system: UO-31 renal
NCI-H23 lung = system: NCI-H23 lung
COLO 205 colon = system: COLO 205 colon
K-562 leukemia = system: K-562 leukemia
SF-539 CNS = system: SF-539 CNS
IGROV1 ovarian = system: IGROV1 ovarian
OVCAR-5 ovarian = system: OVCAR-5 ovarian
A498 renal = system: A498 renal
DU-145 prostate = system: DU-145 prostate
T-47D breast = system: T-47D breast
RXF 393 renal = system: RXF 393 renal
ACHN renal = system: ACHN renal
SK-MEL-5 melanoma = system: SK-MEL-5 melanoma
EKVX NSCLC = system: EKVX NSCLC
SNB-19 CNS = system: SNB-19 CNS
SF-268 CNS = system: SF-268 CNS
MCF7 breast = system: MCF7 breast
SK-OV-3 ovarian = system: SK-OV-3 ovarian
HCC-2998 colon = system: HCC-2998 colon
MOLT-4 leukemia = system: MOLT-4 leukemia
SNB-75 CNS = system: SNB-75 CNS
CCRF-CEM leukemia = system: CCRF-CEM leukemia
HOP-62 NSCLC = system: HOP-62 NSCLC
SF-295 CNS = system: SF-295 CNS
HL-60(TB) leukemia = system: HL-60(TB) leukemia
HS 578T breast = system: HS 578T breast
MDA-MB-468 breast = system: MDA-MB-468 breast
KM12 colon = system: KM12 colon
CAKI-1 renal = system: CAKI-1 renal
SR leukemia = system: SR leukemia
OVCAR-8 ovarian = system: OVCAR-8 ovarian
SK-MEL-28 melanoma = system: SK-MEL-28 melanoma
NCI-H226 lung = system: NCI-H226 lung
M14 melanoma = system: M14 melanoma
MDA-MB-435 = system: MDA-MB-435
786-0 renal = system: 786-0 renal
OVCAR-4 ovarian = system: OVCAR-4 ovarian
LOX IMVI melanoma = system: LOX IMVI melanoma
NCI-H460 lung = system: NCI-H460 lung
SW-620 colon = system: SW-620 colon
HT29 colon = system: HT29 colon
HCT-116 colon = system: HCT-116 colon
TK-10 renal = system: TK-10 renal
MALME-3M melanoma = system: MALME-3M melanoma
SK-MEL-2 melanoma = system: SK-MEL-2 melanoma
MDA-MB-231 breast = system: MDA-MB-231 breast
A549 NSCLC = system: A549 NSCLC
UACC-62 melanoma = system: UACC-62 melanoma
SN12C renal = system: SN12C renal
HCT-15 colon = system: HCT-15 colon
RPMI-8226 leukemia = system: RPMI-8226 leukemia
U251 CNS = system: U251 CNS
PC-3 prostate = system: PC-3 prostate
BT-549 breast = system: BT-549 breast

CC1=C(C(=O)OCc2ccccc2)C(c2cccc3ccccc23)n2c(nc3ccccc32)N1 (stereo not given)
GI50 (OVCAR-3 ovarian): 2650 nM | TGI (OVCAR-3 ovarian): 7.58 µM | GI50 (UO-31 renal): 4.64 µM | TGI (UO-31 renal): > 100 µM | GI50 (NCI-H23 lung): 32.6 µM | TGI (NCI-H23 lung): > 100 µM | GI50 (COLO 205 colon): 3.22 µM | TGI (COLO 205 colon): > 100 µM | GI50 (K-562 leukemia): 1660 nM | TGI (K-562 leukemia): > 100 µM | GI50 (SF-539 CNS): 3.22 µM | TGI (SF-539 CNS): > 100 µM | GI50 (IGROV1 ovarian): 5.49 µM | TGI (IGROV1 ovarian): > 100 µM | GI50 (OVCAR-5 ovarian): > 100 µM | TGI (OVCAR-5 ovarian): > 100 µM | GI50 (A498 renal): > 100 µM | TGI (A498 renal): > 100 µM | GI50 (DU-145 prostate): 4.21 µM | TGI (DU-145 prostate): > 100 µM | GI50 (T-47D breast): 4.22 µM | TGI (T-47D breast): > 100 µM | GI50 (RXF 393 renal): 1510 nM | TGI (RXF 393 renal): 6.9 µM | GI50 (ACHN renal): 4.66 µM | TGI (ACHN renal): > 100 µM | GI50 (SK-MEL-5 melanoma): 3.37 µM | TGI (SK-MEL-5 melanoma): 21.7 µM | GI50 (EKVX NSCLC): 4.8 µM | TGI (EKVX NSCLC): > 100 µM | GI50 (SNB-19 CNS): 5.8 µM | TGI (SNB-19 CNS): > 100 µM | GI50 (SF-268 CNS): 5.44 µM | TGI (SF-268 CNS): > 100 µM | GI50 (MCF7 breast): 2710 nM | TGI (MCF7 breast): > 100 µM | GI50 (SK-OV-3 ovarian): 3.97 µM | TGI (SK-OV-3 ovarian): > 100 µM | GI50 (HCC-2998 colon): 7.58 µM | TGI (HCC-2998 colon): > 100 µM | GI50 (MOLT-4 leukemia): 2710 nM | TGI (MOLT-4 leukemia): > 100 µM | GI50 (SNB-75 CNS): 1390 nM | TGI (SNB-75 CNS): 4.91 µM | GI50 (CCRF-CEM leukemia): 2690 nM | TGI (CCRF-CEM leukemia): > 100 µM | GI50 (HOP-62 NSCLC): 4.15 µM | TGI (HOP-62 NSCLC): > 100 µM | GI50 (SF-295 CNS): 3.04 µM | TGI (SF-295 CNS): > 100 µM | GI50 (HL-60(TB) leukemia): 2140 nM | TGI (HL-60(TB) leukemia): > 100 µM | GI50 (HS 578T breast): 2690 nM | TGI (HS 578T breast): 8.82 µM | GI50 (MDA-MB-468 breast): 1930 nM | TGI (MDA-MB-468 breast): 7.26 µM | GI50 (KM12 colon): 3.21 µM | TGI (KM12 colon): > 100 µM | GI50 (CAKI-1 renal): 2400 nM | TGI (CAKI-1 renal): > 100 µM | GI50 (SR leukemia): 2400 nM | TGI (SR leukemia): > 100 µM | GI50 (OVCAR-8 ovarian): 4.94 µM | TGI (OVCAR-8 ovarian): > 100 µM | GI50 (SK-MEL-28 melanoma): > 100 µM | TGI (SK-MEL-28 melanoma): > 100 µM | GI50 (NCI-H226 lung): 3.26 µM | TGI (NCI-H226 lung): > 100 µM | GI50 (M14 melanoma): 3.78 µM | TGI (M14 melanoma): > 100 µM | GI50 (MDA-MB-435): 1860 nM | TGI (MDA-MB-435): 4.68 µM | GI50 (786-0 renal): 4.68 µM | TGI (786-0 renal): > 100 µM | GI50 (OVCAR-4 ovarian): 6.36 µM | TGI (OVCAR-4 ovarian): > 100 µM | GI50 (LOX IMVI melanoma): 5.7 µM | TGI (LOX IMVI melanoma): > 100 µM | GI50 (NCI-H460 lung): 3.61 µM | TGI (NCI-H460 lung): > 100 µM | GI50 (SW-620 colon): 3.62 µM | TGI (SW-620 colon): > 100 µM | GI50 (HT29 colon): 2530 nM | TGI (HT29 colon): 8.29 µM | GI50 (HCT-116 colon): 3.19 µM | TGI (HCT-116 colon): > 100 µM | GI50 (TK-10 renal): > 100 µM | TGI (TK-10 renal): > 100 µM | GI50 (MALME-3M melanoma): 3.84 µM | TGI (MALME-3M melanoma): > 100 µM | GI50 (SK-MEL-2 melanoma): 2500 nM | TGI (SK-MEL-2 melanoma): 7.66 µM | GI50 (MDA-MB-231 breast): > 100 µM | TGI (MDA-MB-231 breast): > 100 µM | GI50 (A549 NSCLC): 5.21 µM | TGI (A549 NSCLC): > 100 µM | GI50 (UACC-62 melanoma): 3.99 µM | TGI (UACC-62 melanoma): > 100 µM | GI50 (SN12C renal): 5.08 µM | TGI (SN12C renal): > 100 µM | GI50 (HCT-15 colon): 3.61 µM | TGI (HCT-15 colon): > 100 µM | GI50 (RPMI-8226 leukemia): 3.46 µM | TGI (RPMI-8226 leukemia): > 100 µM | GI50 (U251 CNS): 3.49 µM | TGI (U251 CNS): > 100 µM | GI50 (PC-3 prostate): 3.33 µM | TGI (PC-3 prostate): > 100 µM | GI50 (BT-549 breast): 4.67 µM | TGI (BT-549 breast): > 100 µM
